Laboratory results taken from patent US11365192B2, “Pyridine compound substituted with azole” (TAISHO PHARMACEUTICAL CO., LTD., priority 2017, dated 2022).

Experiments:
human CYP4F2 = human CYP4F2 (Homo sapiens (Human), UniProt P78329); experiment: Inhibition test against 20-HETE producing enzyme CYP4F2 (luciferine derivative, luminescence); format: biochemical; details: human CYP4F2, luciferine derivative, luminescence
How it was run: (§1)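 IC50 derived from luminescence after 60 min at room temperature with membrane fractions of E. coli expressing each human CYP (100 μg/mL protein). For CYP4A11, 60 μM luciferin derivative in 100 mM Tris-HCl pH 7.5 with NADPH-regenerating system; for CYP4F2, 2.5 μM substrate, 1 mM NADPH, 50 mM KPO4 pH 7.4.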

human CYP4A11 = human CYP4A11 (Homo sapiens (Human), UniProt Q02928); experiment: Inhibition test against 20-HETE producing enzyme CYP4A11 (luciferine derivative, luminescence); format: biochemical; details: human CYP4A11, luciferine derivative, luminescence
How it was run: as §1

Sequence of human CYP4A11 (Q02928 5-519): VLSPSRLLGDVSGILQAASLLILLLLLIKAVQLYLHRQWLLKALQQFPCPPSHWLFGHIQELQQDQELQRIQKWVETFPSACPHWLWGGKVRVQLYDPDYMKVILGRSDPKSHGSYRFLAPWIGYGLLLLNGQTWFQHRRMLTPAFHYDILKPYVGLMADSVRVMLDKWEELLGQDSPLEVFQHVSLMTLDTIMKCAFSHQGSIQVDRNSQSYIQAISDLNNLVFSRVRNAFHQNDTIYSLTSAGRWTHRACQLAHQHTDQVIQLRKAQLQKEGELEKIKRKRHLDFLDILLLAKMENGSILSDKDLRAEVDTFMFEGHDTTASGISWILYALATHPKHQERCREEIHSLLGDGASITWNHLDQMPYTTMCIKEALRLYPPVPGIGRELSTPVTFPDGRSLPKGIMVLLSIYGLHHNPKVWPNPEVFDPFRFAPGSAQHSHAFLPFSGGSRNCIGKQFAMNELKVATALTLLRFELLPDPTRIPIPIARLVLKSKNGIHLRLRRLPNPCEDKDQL
Sequence of human CYP4F2 (P78329 5-520): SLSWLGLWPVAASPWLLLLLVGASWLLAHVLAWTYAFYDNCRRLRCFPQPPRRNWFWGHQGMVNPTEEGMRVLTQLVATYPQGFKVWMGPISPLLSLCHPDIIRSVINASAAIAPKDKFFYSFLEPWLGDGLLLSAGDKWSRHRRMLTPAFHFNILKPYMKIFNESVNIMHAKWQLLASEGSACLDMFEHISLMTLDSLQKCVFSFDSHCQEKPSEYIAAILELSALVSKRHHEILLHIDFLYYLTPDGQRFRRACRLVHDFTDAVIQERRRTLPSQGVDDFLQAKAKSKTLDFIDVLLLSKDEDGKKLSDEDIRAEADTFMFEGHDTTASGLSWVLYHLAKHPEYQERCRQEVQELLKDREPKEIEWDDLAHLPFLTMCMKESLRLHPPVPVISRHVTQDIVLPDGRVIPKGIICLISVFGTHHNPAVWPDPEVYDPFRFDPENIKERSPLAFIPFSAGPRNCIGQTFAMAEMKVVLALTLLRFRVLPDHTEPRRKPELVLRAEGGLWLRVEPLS

Row | Structure (SMILES) | IC50 (human CYP4F2) [µM] | IC50 (human CYP4A11) [µM]
1 | O=C(O)C1CCc2c(COc3ccc(-c4ccn[nH]4)nc3)cccc2O1 (stereo not drawn) [Example 71-11] | 29 | 0.022
2 | O=C(O)C1COc2c(CCOc3ccc(-c4ccn[nH]4)nc3)cccc2C1 (stereo not drawn) [Example 71-12] | 1.3 | 0.018
3 | O=C(O)c1ccc(F)c(CCCOc2ccc(-c3ccn[nH]3)nc2)c1 [Example 71-13] | 0.77 | 0.051
4 | O=C(O)c1cccc(CCCCCOc2ccc(-c3ccn[nH]3)nc2)n1 [Example 71-14] | 1.3 | 0.15
5 | O=C(O)C1CC1c1ccc(COc2ccc(-c3ccn[nH]3)nc2)cc1 (stereo not drawn) [Example 71-15] | 1.2 | 0.084
6 | O=C(O)C1CC1c1ccc(CCOc2ccc(-c3ccn[nH]3)nc2)c(F)c1 (stereo not drawn) [Example 71-16] | 0.091 | 0.19
7 | O=C(O)C1CC(c2cccc(CCOc3ccc(-c4ccn[nH]4)nc3)c2)C1 (stereo not drawn) [Example 71-19] | 0.54 | 0.053
8 | O=C(O)C1CC(c2ccc(CCOc3ccc(-c4ccn[nH]4)nc3)cc2)C1 (stereo not drawn) [Example 71-20] | 0.19 | 0.5
9 | O=C(O)C1CCc2ccc(CCOc3ccc(-c4ccn[nH]4)nc3)cc2O1 (stereo not drawn) [Example 71-21, 7-[2-[6-(1H-Pyrazol-5-yl)pyridin-3-yl]oxyethyl]-3,4-dihydro-2H-chromene-2-carboxylic Acid] | 0.19 | 0.33
10 | O=C(O)[C@H]1CCc2ccc(CCOc3ccc(-c4ccn[nH]4)nc3)cc2O1 [Example 71-22-1] | 0.31 | 0.25
11 | O=C(O)[C@@H]1CCc2ccc(CCOc3ccc(-c4ccn[nH]4)nc3)cc2O1 [Example 71-22-2] | 0.16 | 1
12 | O=C(O)C1COc2cc(COc3ccc(-c4ccn[nH]4)nc3)ccc2C1 (stereo not drawn) [Example 71-23] | 0.55 | 0.05
13 | O=C(O)C1CC1c1ccc(COc2ccc(-c3ccn[nH]3)nc2)c(F)c1 (stereo not drawn) [Example 71-24] | 2.1 | 0.072
14 | CC(C)(Cc1ccc(COc2ccc(-c3ccn[nH]3)nc2)cc1)C(=O)O [Example 71-25] | 4.8 | 0.3
15 | O=C(O)C1(Cc2cccc(COc3ccc(-c4ccn[nH]4)nc3)c2F)COC1 [Example 71-26] | 9.7 | 0.039
16 | O=C(O)C1(Cc2cccc(CCOc3ccc(-c4ccn[nH]4)nc3)c2F)COC1 [Example 71-27] | 15 | 0.094
17 | CC(C)(Cc1ccc(CCOc2ccc(-c3ccn[nH]3)nc2)cn1)C(=O)O [Example 71-28] | 6.2 | 1.6

Row | Structure (SMILES) | IC50 (human CYP4F2) [µM] | IC50 (human CYP4A11) [µM]
18 | O=C(O)c1ccc(CCCCCOc2ccc(-c3ccn[nH]3)nc2)cn1 [Example 71-29] | 0.26 | 0.11
19 | CC(C)(Oc1ccc(CCOc2ccc(-c3ccn[nH]3)nc2)cc1)C(=O)O [Example 71-30] | 11 | 1.9
20 | CC(C)(Oc1cccc(CCOc2ccc(-c3ccn[nH]3)nc2)c1)C(=O)O [Example 71-31] | 15 | 0.3
21 | CC(C)(Oc1ccc(CCOc2ccc(-c3ccn[nH]3)nc2)cn1)C(=O)O [Example 71-32] | 23 | 6.2
22 | CC(C)(COc1ccc(CCOc2ccc(-c3ccn[nH]3)nc2)cn1)C(=O)O [Example 71-33] | 0.6 | 1.6
23 | CC(C)(Oc1cc(CCOc2ccc(-c3ccn[nH]3)nc2)ccn1)C(=O)O [Example 71-34] | 36 | 1.1
24 | CC(C)(COc1cc(CCOc2ccc(-c3ccn[nH]3)nc2)ccn1)C(=O)O [Example 71-35] | 1.9 | 1.4
25 | CC(C)(Oc1cccc(CCOc2ccc(-c3ccn[nH]3)nc2)n1)C(=O)O [Example 71-36] | > 50 | 0.26
26 | CC(C)(COc1cccc(CCOc2ccc(-c3ccn[nH]3)nc2)n1)C(=O)O [Example 71-37] | 3.5 | 0.16
27 | CC(C)(Oc1ccc(CCCOc2ccc(-c3ccn[nH]3)nc2)cn1)C(=O)O [Example 71-38] | 1.9 | 1.4
28 | CC(C)(COc1ccc(CCCOc2ccc(-c3ccn[nH]3)nc2)cn1)C(=O)O [Example 71-39] | 0.051 | 0.78
29 | CC(C)(Oc1cccc(CCCOc2ccc(-c3ccn[nH]3)nc2)n1)C(=O)O [Example 71-40] | 8.7 | 0.45
30 | CC(C)(COc1cccc(CCCOc2ccc(-c3ccn[nH]3)nc2)n1)C(=O)O [Example 71-41] | 0.66 | 0.16
31 | CC(C)(Oc1cc(CCCOc2ccc(-c3ccn[nH]3)nc2)ccn1)C(=O)O [Example 71-42] | 2.1 | 0.63
32 | CC(C)(COc1cc(CCCOc2ccc(-c3ccn[nH]3)nc2)ccn1)C(=O)O [Example 71-43] | 0.25 | 0.87
33 | CC(=O)N1CC(CCCCCCCCOc2ccc(-c3ccn[nH]3)nc2)(C(=O)O)C1 [Example 71-44] | 0.037 | 1

Results, then the molecule that gave them:

Row | IC50 (human CYP4F2) [µM] | IC50 (human CYP4A11) [µM] | Structure (SMILES)
34 | 0.054 | 0.45 | CC(C)(OCCCCCCCCOc1ccc(-c2ccn[nH]2)nc1)C(=O)O [Example 72-1]
35 | 0.014 | 0.15 | O=C(O)C1(CCCCCCCCOc2ccc(-c3ccn[nH]3)nc2)CCOC1 (stereo not drawn) [Example 72-4]
36 | 0.043 | 0.26 | O=C(O)C1(CCCCCCCCOc2ccc(-c3ccn[nH]3)nc2)CCCO1 (stereo not drawn) [Example 72-5]
37 | 0.0094 | 0.27 | O=C(O)C1(CCCCCCCCOc2ccc(-c3ccn[nH]3)nc2)CCS(=O)(=O)CC1 [Example 72-6]
38 | 15 | 0.014 | O=C(O)C1(Cc2cccc(COc3ccc(-c4ccn[nH]4)nc3)c2F)CC1 [Example 72-7]
39 | 1.7 | 0.015 | O=C(O)C1(Cc2cccc(CCOc3ccc(-c4ccn[nH]4)nc3)c2F)CC1 [Example 72-8]
40 | 0.018 | 0.23 | CC(=O)N1CCC(CCCCCCCCOc2ccc(-c3ccn[nH]3)nc2)(C(=O)O)C1 (stereo not drawn) [Example 72-9]
41 | 1.1 | 0.13 | O=C(O)C1(Cc2ccc(CCOc3ccc(-c4ccn[nH]4)nc3)cc2)CC1 [Example 74-1]
42 | 0.06 | 0.088 | O=C(O)C1CC1c1cccc(CCOc2ccc(-c3ccn[nH]3)nc2)c1F (stereo not drawn) [Example 74-3]
43 | 16 | 0.035 | O=C(O)C1CC1c1ccc(F)c(CCOc2ccc(-c3ccn[nH]3)nc2)c1 (stereo not drawn) [Example 74-6]
44 | 19 | 0.047 | O=C(O)C1CC1c1cc(F)cc(CCOc2ccc(-c3ccn[nH]3)nc2)c1 (stereo not drawn) [Example 74-9]
45 | 13 | 0.51 | O=C(O)C1(Cc2ccc(CCOc3ccc(-c4ccn[nH]4)nc3)cc2)COC1 [Example 74-12, 3-[[4-[2-[6-(1H-Pyrazol-5-yl)pyridin-3-yl]oxyethyl]phenyl]methyl]oxetane-3-carboxylic Acid]
46 | 9.3 | 0.021 | CC(C)(NS(=O)(=O)c1cccc(COc2ccc(-c3ccn[nH]3)nc2)c1)C(=O)O [Example 75-1]
47 | 0.13 | 0.038 | CN(CC(C)(C)C(=O)O)S(=O)(=O)c1cccc(COc2ccc(-c3ccn[nH]3)nc2)c1 [Example 75-2]
48 | 0.49 | 0.036 | CC(C)(CNS(=O)(=O)c1cccc(COc2ccc(-c3ccn[nH]3)nc2)c1)C(=O)O [Example 75-3]
